In patent US11447504B2, “Macrocyclic chlorine substituted indole derivatives” (Bayer Aktiengesellschaft, priority 2017, dated 2022):
Structures can show the parent of a compound that is named as a salt. Where two headings read alike, the source gives them in different places.

Key:
[1] = test system: SUDHL5; assay: Induction of caspase-3/7 activity (Assay 4), SUDHL5; format: cell-based; conditions: SUDHL5 cells
Experimental: (§1) Induction of Caspase-3/7 Activity Upon Treatment of Cells with Selected Compounds
The BH3-domain of MCL-1 sequesters pro-apoptotic proteins, thereby inhibiting apoptosis. In contrast, MCL-1 inhibitors are expected to antagonize this effect leading to an increase in apoptosis, which can be determined by measuring the activity of caspase-3/7.
(§2) The activity of caspase-3/7 was determined in DLBCL (Diffuse large B-cell lymphoma) cell lines (SUDHL5 and SUDHL10) upon treatment with different compounds, using the Caspase-Glo®3/7 reagent from Promega (G8092).
(§3) Rim wells were excluded. The cells were incubated for 3 hours in a humidified incubator at 37° C.
(§4) For the evaluation of the results, the background measured with “medium-only” was subtracted from all other values.

[2] = test system: MV-4-11; assay: Antiproliferation assay 7, MV-4-11; format: cell-based; conditions: MV-4-11 cells, CellTiter-Glo, read-out: Antiproli MV-4-11 IC50 median
Experimental: (§5) Assessment of the Anti-Proliferative Effect of Compounds in Different Cell Lines
(§6) The impact of compounds on the proliferation of different cell lines was assessed using the CellTiter-Glo® Luminescent Cell Viability reagent from Promega (G7573).
(§7) In parallel, cells were plated in a reference (day 0) plate for time zero determination.
(§8) Rim wells were excluded. The cells were incubated for 72 hours in a humidified incubator at 37° C. The day 0 plate was measured by adding 30 μL/well of CTG solution (CellTiter-Glo® Luminescent Cell Viability reagent, Promega G7573) to time zero wells in the reference plate followed by a 10 minutes incubation and luminescence reading at 0.1 ms. using the PHERAstar FS microplate reader (BMG Labtech).
(§9) After 72 hours incubation, the treated plates were measured in the same way as the day 0 plate mentioned above.

[3] = test system: SUDHL5; assay: Induction of cytotoxicity (Assay 6), SUDHL5
[4] = test system: SUDHL10; assay: Induction of cytotoxicity (Assay 6), SUDHL10
Experimental: Assay 6 Induction of Cytotoxicity Upon Treatment of Cells with Selected Compounds
Therefore, cytotoxicity assays were run in parallel in SUDHL5 and SUDHL10 cells.
The different cell lines were plated in culture medium (RPMI 1640 [GIBCO #22400-089]supplemented with 10% Fetal Bovine Serum) at a density of 3,300 cells in 30 μL/well in a sterile, solid black, flat bottom, polystyrene, TC-treated 384-well microplate (Corning #3571) using Multidrop Combi Reagent Dispenser. As a control, medium without cells was also added to the plate. Cells were incubated in a humidified incubator at 37° C. overnight. […] Rim wells were excluded. The cells were incubated for 5 hours in a humidified incubator at 37° C. After this incubation, 30 μL of CellTiter-Glo® Luminescent Cell Viability reagent (Promega, G7573) was added to each well using the Multidrop Combi Reagent Dispenser, followed by 15 minutes incubation on a shaker at room temperature. Finally, luminescence was read at 0.1 ms, with a gain of 3000 using the PHERAstar FS microplate reader (BMG Labtech).

[5] = test system: SUDHL10; assay: Induction of caspase-3/7 activity (Assay 4), SUDHL10; format: cell-based; conditions: SUDHL10 cells
Experimental: as §1
In contrast, MCL-1 inhibitors are expected to antagonize this effect leading to an increase in apoptosis, which can be determined by measuring the activity of caspase-3/7.
as §2, §3, §4

[6] = test system: AMO-1; assay: Antiproliferation assay 7, AMO-1; format: cell-based; conditions: AMO-1 cells, CellTiter-Glo, read-out: Antiproli AMO-1 IC50 median
Experimental: as §5, §6, §7, §8, §9

[7] = test system: SUDHL5; assay: Antiproliferation assay 7, SUDHL5; format: cell-based; conditions: SUDHL5 cells, CellTiter-Glo, read-out: Antiproli SUDHL5 IC50 (median)
Experimental: as §5, §6, §7, §8, §9

[8] = test system: HMC-1-8; assay: Antiproliferation assay 7, HMC-1-8; format: cell-based; conditions: HMC-1-8 cells, 72 hours, CellTiter-Glo; read-out: Antiproli HMC-1-8 IC50 median
Experimental: as §5, §6, §7, §8, §9

[9] = 3 hours, Caspase-Glo 3/7, read-out: Caspase SUDHL5 EC50 (median)
[10] = read-out: Cytotox SUDHL5 IC50 (median), SUDHL5 cells, 5 hours, CellTiter-Glo
[11] = read-out: Cytotox SUDHL10 IC50 (median), SUDHL10 cells, 5 hours, CellTiter-Glo
[12] = 3 hours, Caspase-Glo 3/7, read-out: Caspase SUDHL10 EC50 (median)
[13] = Homo sapiens, SU-DHL-5, 3 h, Caspase-Glo 3/7, read-out: Caspase SUDHL5 EC50 (median)
[14] = Homo sapiens, SU-DHL-5, 5 h, read-out: Cytotox SUDHL5 IC50 (median), SUDHL5 cells, 5 hours, CellTiter-Glo
[15] = Homo sapiens, SU-DHL10, 5 h, read-out: Cytotox SUDHL10 IC50 (median), SUDHL10 cells, 5 hours, CellTiter-Glo
[16] = Homo sapiens, SU-DHL10, 3 h, Caspase-Glo 3/7, read-out: Caspase SUDHL10 EC50 (median)

CCc1nn(CCN2CCOCC2)c2c1-c1c(Cl)ccc3c(CCCOc4cccc5ccccc45)c(C(=O)O)n(c13)C/C=C\CN(C)C2 (single isomer, unassigned; enantiomer 2) [Example 44, (11Z)-4-chloro-3-ethyl-14-methyl-1-[2-(morpholin-4-yl)ethyl]-7-{3-[(naphthalen-1-yl)oxy]propyl}-10,13,14,15-tetrahydro-1H-pyrazolo[3′,4′:8,9][1,6]diazacycloundecino[10,11,1-hi]indole-8-carboxylic Acid-Ammonia Salt (Enantiomer 2)]
EC50 [1, 9]: 9400 nM | IC50 ([2]; 72 hours): 11700 nM | IC50 [3, 10]: 8100 nM | IC50 [4, 11]: 15000 nM | EC50 [5, 12]: 13000 nM | IC50 ([6]; 72 hours): 15500 nM | IC50 ([7]; 72 hours): 7200 nM

CCc1c2c(nn1C)CCCCCCn1c(C(=O)O)c(CCCOc3cccc4ccccc34)c3ccc(Cl)c-2c31 (racemic) [Example 51, (rac)-4-chloro-3-ethyl-2-methyl-7-{3-[(naphthalen-1-yl)oxy]propyl}-10,11,12,13,14,15-hexahydro-2H-pyrazolo[4′,3′:4,5]azacycloundecino[3,2,1-hi]indole-8-carboxylic Acid]
EC50 [1, 13]: 800 nM | IC50 ([2]; Homo sapiens, MV4-11, 72 h): 1710 nM | IC50 [3, 14]: 840 nM | IC50 [4, 15]: 2000 nM | EC50 [5, 16]: 1900 nM | IC50 ([6]; Homo sapiens, AMO1, 72 h): 2150 nM | IC50 ([7]; Homo sapiens, SU-DHL-5, 72 h): 1600 nM

CCc1nn(CCN2CCOCC2)c2c1-c1c(Cl)ccc3c(CCCOc4cccc5ccccc45)c(C(=O)O)n(c13)CCCCN(C)C2 (racemic) [Example 45, (rac)-4-chloro-3-ethyl-14-methyl-1-[2-(morpholin-4-yl)ethyl]-7-{3-[(naphthalen-1-yl)oxy]propyl}-10,11,12,13,14,15-hexahydro-1H-pyrazolo[3′,4′:8,9][1,6]diazacycloundecino[10,11,1-hi]indole-8-carboxylic Acid]
EC50 [1, 13]: 290 nM | IC50 ([2]; Homo sapiens, MV4-11, 72 h): 628 nM | IC50 [3, 14]: 400 nM | IC50 [4, 15]: 750 nM | EC50 [5, 16]: 460 nM | IC50 ([6]; Homo sapiens, AMO1, 72 h): 593 nM | IC50 ([7]; Homo sapiens, SU-DHL-5, 72 h): 530 nM

CCc1c2c(nn1C)CCCCCCn1c(C(=O)O)c(CCCOc3cccc4ccccc34)c3ccc(Cl)c-2c31 (single isomer, unassigned; enantiomer 1) [Example 52, (+)-4-chloro-3-ethyl-2-methyl-7-{3-[(naphthalen-1-yl)oxy]propyl}-10,11,12,13,14,15-hexahydro-2H-pyrazolo[4′,3′:4,5]azacycloundecino[3,2,1-hi]indole-8-carboxylic acid-N-ethylethanamine Salt—Enantiomer 1]
IC50 [8]: 5250 nM | EC50 [1, 9]: 370 nM | IC50 [3, 10]: 320 nM | IC50 ([6]; 72 hours): 1440 nM

CCc1nn(C)c2c1-c1c(Cl)ccc3c(CCCOc4cccc5cc(F)ccc45)c(C(=O)O)n(c13)CCCCN(C)C2 (single isomer, unassigned; enantiomer 2) [Example 41, 4-chloro-3-ethyl-7-{3-[(6-fluoronaphthalen-1-yl)oxy]propyl}-1,14-dimethyl-10,11,12,13,14,15-hexahydro-1H-pyrazolo[3′,4′:8,9][1,6]diazacycloundecino[10,11,1-hi]indole-8-carboxylic Acid (Enantiomer 2)]
EC50 [1, 9]: 2800 nM | IC50 ([2]; 72 hours): 4890 nM | IC50 [3, 10]: 4000 nM | IC50 [4, 11]: 12000 nM | EC50 [5, 12]: 9400 nM | IC50 ([6]; 72 hours): 14900 nM | IC50 ([7]; 72 hours): 2700 nM

CCc1c2c(nn1C)CN(C)CCCCn1c(C(=O)O)c(CCCOc3cccc4cc(F)ccc34)c3ccc(Cl)c-2c31 (single isomer, unassigned; enantiomer 2) [Example 7, 4-chloro-3-ethyl-7-{3-[(6-fluoronaphthalen-1-yl)oxy]propyl}-2,14-dimethyl-10,11,12,13,14,15-hexahydro-2H-pyrazolo[3′,4′:8,9][1,6]diazacycloundecino[10,11,1-hi]indole-8-carboxylic Acid (Enantiomer 2)]
EC50 [1, 9]: 11000 nM | IC50 ([2]; 72 hours): 8630 nM | IC50 [3, 10]: 7100 nM | IC50 [4, 11]: 8300 nM | EC50 [5, 12]: 16000 nM | IC50 ([6]; 72 hours): 11100 nM | IC50 ([7]; 72 hours): 4200 nM

CCc1nn(CCN2CCOCC2)c2c1-c1c(Cl)ccc3c(CCCOc4cccc5ccccc45)c(C(=O)O)n(c13)C/C=C\CN(C)C2 (racemic) [Example 42, (rac)-(11Z)-4-chloro-3-ethyl-14-methyl-1-[2-(morpholin-4-yl)ethyl]-7-{3-[(naphthalen-1-yl)oxy]-propyl}-10,13,14,15-tetrahydro-1H-pyrazolo[3′,4′:8,9][1,6]diazacycloundecino[10,11,1-hi]indole-8-carboxylic Acid]
EC50 [1, 13]: 540 nM | IC50 ([2]; Homo sapiens, MV4-11, 72 h): 975 nM | IC50 [3, 14]: 600 nM | IC50 [4, 15]: 1600 nM | EC50 [5, 16]: 1300 nM | IC50 ([6]; Homo sapiens, AMO1, 72 h): 1380 nM | IC50 ([7]; Homo sapiens, SU-DHL-5, 72 h): 220 nM

Cc1c2c(nn1C)COCCCCn1c(C(=O)O)c(CCCOc3cccc4ccccc34)c3ccc(Cl)c-2c31 (single isomer, unassigned; enantiomer 2) [Example 27, 4-chloro-2,3-dimethyl-7-[3-(naphthalen-1-yloxy)propyl]-2,10,11,12,13,15-hexahydropyrazolo-[4′,3′:9,10][1,6]oxazacycloundecino[8,7,6-hi]indole-8-carboxylic acid-N-ethylethanamine Salt (Enantiomer 2)]
EC50 [1, 9]: 16000 nM | IC50 ([2]; 72 hours): 16100 nM | IC50 [3, 10]: 10000 nM | IC50 [4, 11]: 20000 nM | EC50 [5, 12]: 23000 nM | IC50 ([7]; 72 hours): 7800 nM

CCc1c2c(nn1C)COCCCCn1c(C(=O)O)c(CCCOc3cccc4cc(F)ccc34)c3ccc(Cl)c-2c31 (single isomer, unassigned; enantiomer 2) [Example 38, (−)-4-chloro-3-ethyl-7-{3-[(6-fluoronaphthalen-1-yl)oxy]propyl}-2-methyl-2,10,11,12,13,15-hexahydropyrazolo[4′,3′:9,10][1,6]oxazacycloundecino[8,7,6-hi]indole-8-carboxylic acid-N-ethylethanamine Salt (Enantiomer 2)]
IC50 ([2]; 72 hours): 13400 nM | IC50 [3, 10]: 4300 nM | IC50 [4, 11]: 14000 nM | EC50 [5, 12]: 13000 nM | IC50 ([6]; 72 hours): 11500 nM | IC50 ([7]; 72 hours): 1800 nM

CCc1c2c(nn1C)COCCCCn1c(C(=O)O)c(CCCOc3cccc4cc(F)ccc34)c3ccc(Cl)c-2c31 (racemic) [Example 36, (rac)-4-chloro-3-ethyl-7-{3-[(6-fluoronaphthalen-1-yl)oxy]propyl}-2-methyl-2,10,11,12,13,15-hexahydropyrazolo[4′,3′:9,10][1,6]oxazacycloundecino[8,7,6-hi]indole-8-carboxylic Acid]
EC50 [1, 13]: 300 nM | IC50 ([2]; Homo sapiens, MV4-11, 72 h): 1010 nM | IC50 [3, 14]: 300 nM | IC50 [4, 15]: 640 nM | EC50 [5, 16]: 450 nM | IC50 ([6]; Homo sapiens, AMO1, 72 h): 286 nM | IC50 ([7]; Homo sapiens, SU-DHL-5, 72 h): 340 nM

CCc1nn(C)c2c1-c1c(Cl)ccc3c(CCCOc4cccc5cc(F)ccc45)c(C(=O)O)n(c13)CCCCN(C)C2 (racemic) [Example 39, (rac)-4-chloro-3-ethyl-7-{3-[(6-fluoronaphthalen-1-yl)oxy]propyl}-1,14-dimethyl-10,11,12,13,14,15-hexahydro-1H-pyrazolo[3′,4′:8,9][1,6]diazacycloundecino[10,11,1-hi]indole-8-carboxylic Acid]
EC50 [1, 13]: 200 nM | IC50 ([2]; Homo sapiens, MV4-11, 72 h): 442 nM | IC50 [3, 14]: 230 nM | IC50 [4, 15]: 410 nM | EC50 [5, 16]: 390 nM | IC50 ([6]; Homo sapiens, AMO1, 72 h): 359 nM | IC50 ([7]; Homo sapiens, SU-DHL-5, 72 h): 200 nM
